The record followed here is PubChem BioAssay AID1259411 (Chemical Carcinogenesis Research Information System (CCRIS), 2018).

This data set deals with rodent carcinogenicity bioassays, tumor incidence. Kind of data set: CCRIS carcinogenicity studies. The method, boiled down: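 NCI-built, expert-reviewed records of carcinogenicity and related test outcomes (mutagenicity, tumor promotion/inhibition) compiled from published and report sources, historical span 1985-2011, not updated.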

Each structure is given as a SMILES string. Calls of active or inactive are those of the source. The rule behind the calls is not given here.

`C1CCC2CCCCC2C1` (stereo unspecified): the carcinogen call runs as follows: (Species: MOUSE, Strain/Sex: B6C3F1/FEMALE (50/GROUP), Route: INHALATION, Dose: 0, 25, 100, 400 PPM 6 HR/D, 5 D/WK FOR 105 WKS (STUDY DURATION: 105 WKS), Dose: 0, 25, 100, 400 PPM 6 HR/D, 5 D/WK FOR 105 WKS (STUDY DURATION: 105 WKS), Tumor Site: Type of Lesion: LIVER: HEPATOCELLULAR ADENOMA OR CARCINOMA (22%; 54%; 28%; 42%)) “equivocal; ntp says marginal increase in uterine tumors but p values did not rea”; (Species: MOUSE, Strain/Sex: B6C3F1/MALE (50/GROUP), Route: INHALATION, Dose: 0, 25, 100, 400 PPM 6 HR/D, 5 D/WK FOR 105 WKS (STUDY DURATION: 105 WKS), Dose: 0, 25, 100, 400 PPM 6 HR/D, 5 D/WK FOR 105 WKS (STUDY DURATION: 105 WKS)) “inactive; negative”; (Species: RAT, Strain/Sex: F344/FEMALE, Route: INHALATION, Dose: 0, 25, 100, 400 PPM IN AIR, 6 H PLUS 12 MIN/D, 5 D/WK FOR 2 YR (STUDY DURATION: 2 YR), Dose: 0, 25, 100, 400 PPM IN AIR, 6 H PLUS 12 MIN/D, 5 D/WK FOR 2 YR (STUDY DURATION: 2 YR)) “inactive; negative”; (Species: RAT, Strain/Sex: F344/MALE, Route: INHALATION, Dose: 0, 25, 50, 100, 400 PPM IN AIR , 6 H PLUS 12 MIN/D, 5 D/WK FOR 2 YR (STUDY DURATION: 2 YR), Dose: 0, 25, 50, 100, 400 PPM IN AIR , 6 H PLUS 12 MIN/D, 5 D/WK FOR 2 YR (STUDY DURATION: 2 YR), Tumor Site: Type of Lesion: KIDNEY: RENAL TUBULE ADENOMA, RENAL TUBULE ADENOMA OR CARCINOMA) “active; positive”; (Species: RAT, Strain/Sex: F344/N/FEMALE (50/GROUP), Route: INHALATION, Dose: 0, 25, 100, 400 PPM 6 HR/D, 5 D/WK FOR 105 WKS (STUDY DURATION: 105 WKS), Dose: 0, 25, 100, 400 PPM 6 HR/D, 5 D/WK FOR 105 WKS (STUDY DURATION: 105 WKS)) “inactive; negative”; (Species: RAT, Strain/Sex: F344/N/MALE (20/GROUP), Route: INHALATION, Dose: 400 PPM 6 HR/D, 5 D/WK FOR 105 WKS (STUDY DURATION: 105 WKS), Tumor Site: Type of Lesion: KIDNEY: RENAL TUBULE ADENOMA OR CARCINOMA (30%), ADRENAL: PHEOCHROMOCYTOMA (40%)) “active; positive”. Further, under “Species: RAT, Strain/Sex: F344/N/MALE (50/GROUP), Route: INHALATION, Dose: 0, 25, 50, 100 PPM 6 HR/D, 5 D/WK FOR 105 WKS (STUDY DURATION: 105 WKS), Dose: 0, 25, 50, 100 PPM 6 HR/D, 5 D/WK FOR 105 WKS (STUDY DURATION: 105 WKS), Tumor Site: Type of Lesion: KIDNEY: RENAL TUBULE ADENOMA OR CARCINOMA (2%; 6%; 14%; 24%), ADRENAL: BENIGN OR MALIGNANT PHEOCHROMOCYTOMA (16%, 18%, 2, Tumor Site: Type of Lesion: KIDNEY: RENAL TUBULE ADENOMA OR CARCINOMA (2%; 6%; 14%; 24%), ADRENAL: BENIGN OR MALIGNANT PHEOCHROMOCYTOMA (16%, 18%, 2”, the carcinogen call was “active; positive; alpha-2u-globulin, incidences of renal tubule regeneration and granula”.

Turning to `COCCl`, the carcinogen call (Species: MOUSE, Strain/Sex: ICR/FEMALE, Route: SUBCUTANEOUS, Dose: 300 UG IN 0.05 ML NUJOL 1/WK FOR 685 D, Tumor Site: Type of Lesion: INJECTION SITE: SARCOMA) is “active; positive”.

In the case of `C1COCCN1`, the carcinogen call is, setting by setting: (Species: RAT, Strain/Sex: SPRAGUE-DAWLEY/FEMALE, Route: INHALATION, Dose: 0, 10, 50, 150 PPM 6 HR/D 5 D/WK FOR 104 WK (STUDY DURATION: 105 WK), Dose: 0, 10, 50, 150 PPM 6 HR/D 5 D/WK FOR 104 WK (STUDY DURATION: 105 WK)) “inactive; negative”; (Species: RAT, Strain/Sex: SPRAGUE-DAWLEY/MALE, Route: INHALATION, Dose: 0, 10, 50, 150 PPM 6 HR/D 5 D/WK FOR 104 WK (STUDY DURATION: 105 WK), Dose: 0, 10, 50, 150 PPM 6 HR/D 5 D/WK FOR 104 WK (STUDY DURATION: 105 WK)) “inactive; negative”.

Turning to `Nc1ccc(Oc2ccc(N)c(Cl)c2)cc1Cl`, the carcinogen call (Species: RAT, Route: SUBCUTANEOUS, Tumor Site: Type of Lesion: EAR (CANAL)) was “active; positive”.

On to `CCCCOCCOCCOCc1cc2c(cc1CCC)OCO2`, for which the carcinogen call by setting is: (Species: MOUSE, Strain/Sex: B6C3F1/FEMALE, Route: ORAL, Dose: 0, 1036, 2804 PPM IN DIET, TWA, Dose: 0, 1036, 2804 PPM IN DIET, TWA) “inactive; negative”; (Species: MOUSE, Strain/Sex: B6C3F1/MALE, Route: ORAL, Dose: 0, 1036, 2804 PPM IN DIET, TWA, Dose: 0, 1036, 2804 PPM IN DIET, TWA) “inactive; negative”; (Species: MOUSE, Strain/Sex: CD-1/FEMALE, Route: ORAL, Dose: 0, 0.6, 1.2% IN DIET FOR 52 WK (STUDY DURATION: 52 WK), Dose: 0, 0.6, 1.2% IN DIET FOR 52 WK (STUDY DURATION: 52 WK), Tumor Site: Type of Lesion: LIVER: HEPATOCELLULAR ADENOMA, HEPATOCELLULAR CARCINOMA) “active; positive”; (Species: MOUSE, Strain/Sex: CD-1/FEMALE, Route: ORAL, Dose: 0, 30, 100, 300 MG/KG/D IN DIET FOR 79 WK (STUDY DURATION: 79 WK), Dose: 0, 30, 100, 300 MG/KG/D IN DIET FOR 79 WK (STUDY DURATION: 79 WK), Tumor Site: Type of Lesion: LIVER: HEPATOCELLULAR ADENOMA) “active; positive”; (Species: MOUSE, Strain/Sex: CD-1/MALE, Route: ORAL, Dose: 0, 0.6, 1.2% IN DIET FOR 12 MO (STUDY DURATION: 12 MO), Dose: 0, 0.6, 1.2% IN DIET FOR 12 MO (STUDY DURATION: 12 MO), Tumor Site: Type of Lesion: LIVER: HEPATOCELLULAR ADENOMA, HEPATOCELLULAR CARCINOMA, HEMANGIOENDOTHELIAL SARCOMA (SMALL), HEMANGIOENDOTHELIAL SARCOM) “active; positive”; (Species: MOUSE, Strain/Sex: CD-1/MALE, Route: ORAL, Dose: 0, 0.6, 1.2% IN DIET FOR 52 WK (STUDY DURATION: 52 WK), Dose: 0, 0.6, 1.2% IN DIET FOR 52 WK (STUDY DURATION: 52 WK), Tumor Site: Type of Lesion: LIVER: HEPATOCELLULAR ADENOMA, HEPATOCELLULAR CARCINOMA) “active; positive”. The carcinogen call was “active; positive” (Species: MOUSE, Strain/Sex: CD-1/MALE, Route: ORAL, Dose: 0, 30, 100, 300 MG/KG/D IN DIET FOR 79 WK (STUDY DURATION: 79 WK), Dose: 0, 30, 100, 300 MG/KG/D IN DIET FOR 79 WK (STUDY DURATION: 79 WK), Tumor Site: Type of Lesion: LIVER: HEPATOCELLULAR ADENOMA); “inactive; negative” (Species: RAT, Strain/Sex: F344/FEMALE, Route: ORAL, Dose: 0, 0.5, 1% IN DIET FOR 2 YR (STUDY DURATION: 110 WK), Dose: 0, 0.5, 1% IN DIET FOR 2 YR (STUDY DURATION: 110 WK)); “active; positive” (Species: RAT, Strain/Sex: F344/FEMALE, Route: ORAL, Dose: 0, 0.6, 1.2, 2.4% IN DIET FOR 96 WK (STUDY DURATION: 96 WK), Dose: 0, 0.6, 1.2, 2.4% IN DIET FOR 96 WK (STUDY DURATION: 96 WK), Tumor Site: Type of Lesion: LIVER: HEPATOCELLULAR ADENOMA, HEPATOCELLULAR CARCINOMA); “inactive; negative” (Species: RAT, Strain/Sex: F344/FEMALE, Route: ORAL, Dose: 0, 5000, 10000 PPM IN DIET, Dose: 0, 5000, 10000 PPM IN DIET); “inactive; negative” (Species: RAT, Strain/Sex: F344/MALE, Route: ORAL, Dose: 0, 0.5, 1% IN DIET FOR 2 YR (STUDY DURATION: 110 WK), Dose: 0, 0.5, 1% IN DIET FOR 2 YR (STUDY DURATION: 110 WK)); “active; positive” (Species: RAT, Strain/Sex: F344/MALE, Route: ORAL, Dose: 0, 0.6, 1.2, 2.4% IN DIET FOR 95 WK (STUDY DURATION: 95 WK), Dose: 0, 0.6, 1.2, 2.4% IN DIET FOR 95 WK (STUDY DURATION: 95 WK), Tumor Site: Type of Lesion: LIVER: HEPATOCELLULAR ADENOMA, HEPATOCELLULAR CARCINOMA). Moreover, the carcinogen call (Species: RAT, Strain/Sex: F344/MALE, Route: ORAL, Dose: 0, 5000, 10000 PPM IN DIET, Dose: 0, 5000, 10000 PPM IN DIET) is “inactive; negative”; the carcinogen call (Species: RAT, Strain/Sex: SPRAGUE-DAWLEY/FEMALE, Route: ORAL, Dose: 0, 30, 100, 500 MG/KG/D IN DIET FOR 104-105 WK (STUDY DURATION: 105 WK), Dose: 0, 30, 100, 500 MG/KG/D IN DIET FOR 104-105 WK (STUDY DURATION: 105 WK)) is “inactive; negative”; the carcinogen call (Species: RAT, Strain/Sex: SPRAGUE-DAWLEY/MALE, Route: ORAL, Dose: 0, 30, 100, 500 MG/KG/D IN DIET FOR 104-105 WK (STUDY DURATION: 105 WK), Dose: 0, 30, 100, 500 MG/KG/D IN DIET FOR 104-105 WK (STUDY DURATION: 105 WK)) was “inactive; negative”.
